Laboratory results as given in patent US20250134869A1, “Pyrrolo[2,3-d]pyrimidinyl, Pyrrolo[2,3-b]pyrazinyl and Pyrrolo[2,3-d]pyridinyl Acryla-mides” (Pfizer Inc, priority 2021, published 2025).
Read-outs that look alike come from different tables or passages of the source.

Target: JAK3 enzyme (Homo sapiens (Human), UniProt P52333)
Assay: JAK Caliper Enzyme Assay at 4 μM or 1 mM ATP
Assay type: biochemical
Method: JAK Caliper Enzyme Assay at […] or 1 mM ATP
Test article was solubilized in dimethyl sulfoxide (DMSO) to a stock concentration of 30 mM. An 11-point half log dilution series was created in DMSO with a top concentration of 600 μM. […] The compound plates were diluted 1 to 60 resulting in a top final assay compound concentration of 10 μM and a 2% DMSO concentration.
Test article and assay controls were added to a 384-well plate. Reaction mixtures contained 20 mM HEPES, pH 7.4, 10 mM magnesium chloride, 0.01% bovine serum albumin (BSA), 0.0005% Tween […] or 1 mM ATP and […] peptide substrate. […] The assays were initiated by the addition 1 nM JAK3 enzyme and were incubated at room temperature 75 minutes for JAK3. Enzyme concentrations and incubation times were optimized for each new enzyme preps and were modified slightly over time to ensure 20%-30% phosphorylation. The assays were stopped with a final concentration of 10 mM EDTA, 0.1% Coating Reagent and 100 mM HEPES, pH=7.4. The assay plates were placed on a Caliper Life Science Lab Chip 3000 (LC3000) instrument, and each well was sampled using appropriate separation conditions to measure the unphosphorylated and phosphorylated peptide.

[1] = read-out: JAK3 (4 μM ATP) IC50, 4 μM ATP
[2] = read-out: JAK3 (1 mM ATP) IC50, 1 mM ATP

Sequence of JAK3 enzyme (P52333 whole entry, species assumed): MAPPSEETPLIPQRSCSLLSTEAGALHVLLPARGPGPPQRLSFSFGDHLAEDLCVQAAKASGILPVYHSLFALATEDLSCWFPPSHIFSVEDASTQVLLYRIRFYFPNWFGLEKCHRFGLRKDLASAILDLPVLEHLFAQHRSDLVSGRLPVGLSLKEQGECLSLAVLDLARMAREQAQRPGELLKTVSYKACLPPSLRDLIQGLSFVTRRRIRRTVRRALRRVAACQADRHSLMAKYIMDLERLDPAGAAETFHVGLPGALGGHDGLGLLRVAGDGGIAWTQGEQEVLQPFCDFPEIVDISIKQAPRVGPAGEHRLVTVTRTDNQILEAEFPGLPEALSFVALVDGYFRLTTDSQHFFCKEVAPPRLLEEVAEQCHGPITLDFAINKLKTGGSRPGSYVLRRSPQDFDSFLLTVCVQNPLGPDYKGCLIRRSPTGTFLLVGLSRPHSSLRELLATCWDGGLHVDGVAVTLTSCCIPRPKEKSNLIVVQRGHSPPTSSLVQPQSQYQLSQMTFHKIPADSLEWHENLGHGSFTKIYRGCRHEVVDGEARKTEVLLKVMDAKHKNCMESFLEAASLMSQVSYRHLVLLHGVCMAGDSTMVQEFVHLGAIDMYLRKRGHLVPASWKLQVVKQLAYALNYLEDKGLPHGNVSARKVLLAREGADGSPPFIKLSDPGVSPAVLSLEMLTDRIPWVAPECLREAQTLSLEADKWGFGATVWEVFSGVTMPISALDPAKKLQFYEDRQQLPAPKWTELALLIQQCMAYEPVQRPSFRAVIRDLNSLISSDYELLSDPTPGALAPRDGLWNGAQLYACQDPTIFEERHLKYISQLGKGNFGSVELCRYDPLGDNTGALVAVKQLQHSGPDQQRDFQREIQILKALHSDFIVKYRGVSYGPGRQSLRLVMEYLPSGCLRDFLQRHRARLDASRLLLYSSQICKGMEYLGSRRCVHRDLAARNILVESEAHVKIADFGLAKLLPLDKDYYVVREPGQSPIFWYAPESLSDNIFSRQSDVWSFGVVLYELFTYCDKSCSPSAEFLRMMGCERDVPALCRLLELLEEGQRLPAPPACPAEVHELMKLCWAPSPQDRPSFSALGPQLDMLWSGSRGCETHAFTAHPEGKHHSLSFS

Compound	IC50 [1]	IC50 [2]
C=CC(=O)N1CC[C@@]2(C)CCN(c3ncnc4[nH]ccc34)[C@H]2C1 [Example 122, 1-((3aR,7aR)-3a-Methyl-1-(7H-pyrrolo[2,3-d]pyrimidin-4-yl)hexahydro-1H-pyrrolo[2,3-c]pyridin-6 (2H)-yl)prop-2-en-1-one]	75.6 nM	> 10000 nM
C=CC(=O)N1C[C@H](Nc2ncnc3[nH]ccc23)CC[C@H]1CC [Example 124, 1-[(2R,5R)-2-Ethyl-5-(7H-pyrrolo[2,3-d]pyrimidin-4-ylamino)piperidin-1-yl]prop-2-en-1-one]	265 nM	> 10000 nM
C=CC(=O)N1C[C@@H](Nc2ncnc3[nH]ccc23)CC[C@@H]1CC [Example 125, 1-[(2S,5S)-2-Ethyl-5-(7H-pyrrolo[2,3-d]pyrimidin-4-ylamino)piperidin-1-yl]prop-2-en-1-one]	1420 nM	> 10000 nM
C=CC(=O)N1C[C@@H](Nc2ncnc3[nH]ccc23)[C@@H]2CC[C@H]1C2 [Example 126, 1-((1S,4S,5R)-4-(7H-pyrrolo[2,3-d]pyrimidin-4-ylamino)-2-azabicyclo[3.2.1]octan-2-yl)prop-2-en-1-one]	602 nM	> 10000 nM
C=CC(=O)N1C[C@H](Nc2ncnc3[nH]ccc23)[C@H]2CC[C@@H]1C2 [Example 127, 1-((1R,4R,5S)-4-(7H-pyrrolo[2,3-d]pyrimidin-4-ylamino)-2-azabicyclo[3.2.1]octan-2-yl)prop-2-en-1-one]	190 nM	> 10000 nM
C=CC(=O)N1CC[C@@H](C)[C@@H](N(C)c2ncnc3[nH]ccc23)C1 [Example 130, 1-{(3R,4R)-4-Methyl-3-[methyl(7H-pyrrolo[2,3-d]pyrimidin-4-yl)amino]piperidin-1-yl}prop-2-en-1-one]	75.2 nM	
C=CC(=O)N1CC[C@@H]2CN(c3ncnc4[nH]ccc34)[C@@H]2C1 [Example 131, 1-[(1S,6R)-8-(7H-Pyrrolo[2,3-d]pyrimidin-4-yl)-3,8-diazabicyclo[4.2.0]oct-3-yl]prop-2-en-1-one]	988 nM	
C=CC(=O)N1CC[C@H]2CN(c3ncnc4[nH]ccc34)[C@H]2C1 [Example 134, 1-[(1R,6S)-8-(7H-Pyrrolo[2,3-d]pyrimidin-4-yl)-3,8-diazabicyclo[4.2.0]oct-3-yl]prop-2-en-1-one]	71.2 nM	
C/C=C/C(=O)N1CCC[C@@H](N(C)c2ncnc3[nH]cc(CCOC)c23)C1 [Example 135, (2E)-1-[(3R)-3-{[5-(2-Methoxyethyl)-7H-pyrrolo[2,3-d]pyrimidin-4-yl](methyl)amino}-piperidin-1-yl]but-2-en-1-one]	> 10000 nM	

The next lines start with the values.

IC50 [1]	IC50 [2]	Compound
238 nM		C=CC(=O)N1CCC[C@@H](N(C)c2ncnc3[nH]cc(CCOC)c23)C1 [Example 136, 1-[(3R)-3-{[5-(2-Methoxyethyl)-7H-pyrrolo[2,3-d]pyrimidin-4-yl](methyl)amino]piper-idin-1-yl]prop-2-en-1-one]
0.3 nM		C=CC(=O)N1CCC[C@@H](Nc2ncnc3[nH]cc(Cc4ccc(O)cc4)c23)C1 [Example 137, 1-[(3R)-3-{[5-(4-Hydroxybenzyl)-7H-pyrrolo[2,3-d]pyrimidin-4-yl]amino}piperidin-1-yl]prop-2-en-1-one]
110 nM		C/C=C/C(=O)N1CCC[C@@H](Nc2ncnc3[nH]cc(Cc4ccc(O)cc4)c23)C1 [Example 138, (2E)-1-[(3R)-3-{[5-(4-Hydroxybenzyl)-7H-pyrrolo[2,3-d]pyrimidin-4-yl]amino}piperidin-1-yl]but-2-en-1-one]
83.1 nM		C=C(C)C(=O)N1CCC[C@@H](Nc2ncnc3[nH]cc(Cc4ccc(O)cc4)c23)C1 [Example 139, 1-[(3R)-3-{[5-(4-hydroxybenzyl)-7H-pyrrolo[2,3-d]pyrimidin-4-yl]amino}piperidin-1-yl]-2-methylprop-2-en-1-one]
225 nM		C=CC(=O)N1CCC[C@@H](Nc2ncnc3[nH]cc(C(=O)N(C)C)c23)C1 [Example 142, 4-{[(3R)-1-acryloylpiperidin-3-yl]amino}-N,N-dimethyl-7H-pyrrolo[2,3-d]pyrimidine-5-carboxamide]
